Type in all cases: cell-based, zebrafish (Danio rerio)
Series [1] concerns AhR (AhR/ARNT/XRE pathway). The series is described as follows: AhR-responsive transient dual luciferase reporter gene (DLR) assay in ZFL cells. As to conditions: zebrafish, TCDD exposure, 4PL regression. As to the method:
(§1) ZFL cells were seeded either into white, clear-bottom 96-well microtiter plates (Corning, New York, USA; for DLR assays) or transparent 96-well microtiter plates (Corning, New York, USA; for viability assays) at a density of 1.5 × 10^5 cells/mL, in 100 μL/well. After 24 h of incubation, cells reached a confluence of about 80%.
(§2) The transient transfection was conducted in a 2-μg transfection reagent to 1 μg plasmid DNA ratio, applying the XHP transfection reagent (Roche, Mannheim, Germany). Specific transfection optimization experiments were reported priory (Lungu-Mitea et al. [2018]). The transient transfection reaction was incubated as a co-transfection in a 10:1 reporter to control ratio (0.9 μg reporter plasmid, 0.1 μg control plasmid) for 30 min, before adding the reaction mixture to the cells. Firefly luciferase-bearing vectors were used as the primary reporter plasmids, and Renilla luciferase-bearing vectors were used for normalization (control plasmid). Ten microliter per well of the transfection reaction mix was added to the cells and incubated for 24 h. Following (Lungu-Mitea and Lundqvist [2020]), cells used in both DLR and viability assays were transiently transfected.
(§3) Prepared aliquots of stock solutions were thawed and further titrated using the nutrition medium supplemented with 5‰ (v/v) DMSO as a solvent. […] Different exposure regimes were applied. […] All potential co-transfection combinations were screened in this initial approach. […] Further, cells transfected with candidate plasmid combinations were subjected to a TCDD exposure regime from 100 pM to 100 nM (0.1, 0.3, 1, 3, 10, 30, 100 nM). Cells were exposed in 100 μL/well of the specifically spiked nutrition medium. Solvent controls (negative controls) were conducted in six replicates for every specific experiment.
(§4) After 24 h of exposure to AhR-agonists, cells on white 96-well microtiter plates were lysed in 20-μL passive lysis buffer (PLB; Promega, Madison, USA), and quantitative AhR-dependent luminescence was measured via Dual-Luciferase® Reporter Assay (DLR; Promega, Madison, USA), according to the manufacturer’s protocol using an auto-injecting Infinite M1000 microplate reader (Tecan, Männedorf, Switzerland), following a flash luminescence protocol. The luciferase activity was normalized to transfection efficiency (Firefly raw light unit readout divided by Renilla raw light unit readout) and further expressed as fold change compared to the non-treated controls.
(§5) In terms of the NOEC/LOEC analyses, for both approaches (DLR and viability), mean background values (blanks) were subtracted from the raw values, and the data was computed as fold induction in relation to the negative controls. Means of every experiment were pooled (experimental unit n = 3–5; observational unit N = 9–15). Normality was tested by Shapiro–Wilk and Kolmogorov–Smirnov tests (both significance level alpha = 0.05) and analyzed graphically via normal-qq-plot. Non-normal data were log-transformed and re-analyzed. Given normality, statistically differing significance in the output signal from the negative controls was assessed via one-way ANOVA, followed by Dunnett’s post hoc test (for multiple comparisons vs. control). Residuals were graphically analyzed by quantile–quantile plot (actual vs. predicted residuals), homoscedasticity plot (absolute residuals vs. fitted), and residual plot (residuals vs. fitted) to ensure ANOVA criteria were met. Further, Brown–Forsythe and Bartlett’s tests were conducted to check for the residuals’ homoscedasticity and normality. Beyond statistical significance, for all viability tests, a threshold of 80% as compared to the negative control (corresponding 0.8) was determined as biologically significant and marked with a dotted red line within all respective graphs. […]
(A reporter such as luciferase makes a cellular process visible.)

Series [2] concerns AhR transcription factor activation (AhR/ARNT/XRE pathway). The series is described as above. As to conditions: for LOEC: TCDD exposure 24 h; for EC20 (normalized): 4PL regression. As to the method:
as §1, §2, §3, §4, §5

Series [3] concerns ZFL cells. The series is described as follows: MTS/BCA-multiplex viability assay on transiently transfected ZFL cells. As to conditions: TCDD 0.1-100 nM; pGudluc7.5 + pRL-null[zfEF1aPro] (Fig. S7). As for the experimental part:
In parallel to the DLR assays, MTS/BCA-multiplex assays were conducted on identically treated cells. The MTS/BCA-multiplex assay, which is described in detail in (Lungu-Mitea et al. [2021]), scores NADPH-turnover and total protein amount as apical endpoints of cell viability or cytotoxicity. After 24 h exposure, the spiked nutrition medium was discharged, cells were washed once in 100 µL/well PBS, and 100 µL/well Earle’s Balanced Salt Solution (EBSS; Gibco, Paisley, UK) was added. MTS-based CellTiter 96® AQueous One Solution Cell Proliferation Assay (Promega, Madison, USA) was conducted following the manufacturer’s protocol. Seventeen percent (v/v) MTS reagent were added to the wells. After 2 h of incubation at 28 °C and atmospherical CO2, formazan product turnover absorbance was measured at 490 nm using an Infinite M1000 microplate reader. Afterwards, EBSS and MTS reagents were removed. Cells were washed once in 100 µL/well PBS and lysed in 20-µL PLB at RT for 30 min. Bicinchoninic Acid Protein Assay (BCA, Sigma-Aldrich, St. Louis, USA) was conducted following the manufacturer’s protocol. One hundred eighty microliters of BCA-reagent was added to every well, plates were agitated shortly, and incubated for 20 min at 60 °C. After cooling down for 15 min at RT, absorbance was measured at 562 nm using an Infinite M1000 microplate reader.
In terms of the NOEC/LOEC analyses, for both approaches (DLR and viability), mean background values (blanks) were subtracted from the raw values, and the data was computed as fold induction in relation to the negative controls. Means of every experiment were pooled (experimental unit n = 3–5; observational unit N = 9–15). Normality was tested by Shapiro–Wilk and Kolmogorov–Smirnov tests (both significance level alpha = 0.05) and analyzed graphically via normal-qq-plot. Non-normal data were log-transformed and re-analyzed. Given normality, statistically differing significance in the output signal from the negative controls was assessed via one-way ANOVA, followed by Dunnett’s post hoc test (for multiple comparisons vs. control). Residuals were graphically analyzed by quantile–quantile plot (actual vs. predicted residuals), homoscedasticity plot (absolute residuals vs. fitted), and residual plot (residuals vs. fitted) to ensure ANOVA criteria were met. Further, Brown–Forsythe and Bartlett’s tests were conducted to check for the residuals’ homoscedasticity and normality. Beyond statistical significance, for all viability tests, a threshold of 80% as compared to the negative control (corresponding 0.8) was determined as biologically significant and marked with a dotted red line within all respective graphs.

Each structure is given as a SMILES string. Like-named read-outs stand apart in the source and are kept apart here.

Broadly, the EC50 is the concentration that produces a half-maximal response.

Consider `Clc1cc2c(cc1Cl)Oc1cc(Cl)c(Cl)cc1O2` [TCDD, 2,3,7,8-tetrachlorodibenzo-p-dioxin], for which the EC50 at 24 h was determined as 0.612 nM in series [1] (setup (a) pGL4.43 + pGL4.70, read-out: EC50 (normalized)); 0.595 nM in series [1] (setup (a) pGL4.43 + pGL4.70, read-out: EC50 (relative; non-normalized)); 2.7 nM in series [1] (setup (b) pGL4.43 + pRL-null, read-out: EC50 (normalized)); 1.31 nM in series [1] (setup (b) pGL4.43 + pRL-null, read-out: EC50 (relative; non-normalized)); 1.15 nM in series [1] (setup (c) pGudLuc7.5 + pRL-null[zfEF1aPro], read-out: EC50 (normalized)); 1.13 nM in series [1] (setup (c) pGudLuc7.5 + pRL-null[zfEF1aPro], read-out: EC50 (relative; non-normalized)). Moreover, the EC50 at 24 h stood at 1.45 nM in series [1] (setup (d) pGL4.43 + pRL-null[zfEF1aPro], read-out: EC50 (normalized)); 0.877 nM in series [1] (setup (d) pGL4.43 + pRL-null[zfEF1aPro], read-out: EC50 (relative; non-normalized)); 0.661 nM in series [1] (setup (e) pGudLuc7.5 + pRL-null, read-out: EC50 (normalized)); 0.685 nM in series [1] (setup (e) pGudLuc7.5 + pRL-null, read-out: EC50 (relative; non-normalized)); 1.26 nM in series [1] (setup (f) pGudLuc7.5 + pGL4.70, read-out: EC50 (normalized)); 1.07 nM in series [1] (setup (f) pGudLuc7.5 + pGL4.70, read-out: EC50 (relative; non-normalized)). In addition, the LOEC in series [2] (setup (d) pGL4.43 + pRL-null[zfEF1aPro]) amounted to 0.1 nM; in series [2] (setup (e) pGudLuc7.5 + pRL-null), 1 nM; in series [2] (setup (f) pGudLuc7.5 + pGL4.70), 1 nM. Moreover, the “EC20, all co-transfection setups” value in series [2] (TCDD exposure, all recorded within this range) was about 0.2 nM. For the same compound, in series [2] (TCDD exposure, pGudluc7.5 + pRL-null[zfEF1aPro] (Fig. 5A)), the “plateau of relative induction” value is recorded as “approximately 26 fold”. Further, the “EC20 (normalized)” value is 0.282 nM in series [2] (TCDD exposure, setup (d) pGL4.43 + pRL-null[zfEF1aPro]); 0.245 nM in series [2] (TCDD exposure, setup (e) pGudLuc7.5 + pRL-null); 0.204 nM in series [2] (TCDD exposure, setup (f) pGudLuc7.5 + pGL4.70). In addition, in series [3], the “cytotoxicity (MTS)” value was “none”.

These data come from PMC10406726, “Development, scrutiny, and modulation of transient reporter gene assays of the xenobiotic metabolism pathway in zebrafish hepatocytes” (Cell Biology and Toxicology, 2021).
